Where two headings read alike, the source gives them in different places.
Columns and labels:
Format in all cases: cell-based
[1] = system: human coronary artery smooth muscle cells (HCASMC), PDGF-BB induced; test: Anti-cell proliferation in normal cells in the presence of PDGF stimulation (14C-thymidine incorporation); details: read-out: IC50 on cell proliferation, HCASMC (PDGF-BB)
Experimental: The effect of compounds of the invention on cell proliferation in normal human primary cells, in particular, cryopreserved human coronary artery smooth muscle cells (HCASMC), in the presence of PDGF stimulation was tested based on incorporation of ^14C-thymidine into DNA of cells.
The following materials were purchased from their respective sources: Recombinant human PDGF beta homodimer, rhPDGF-BB (herein after referred as “PDGF-BB”) purchased from R&D System (Minneapolis, Minn., Cat. No 220-BB); Cryopreserved human coronary artery smooth muscle cells (HCASMC), tissue culture medium for HCASMC, and smooth muscle growth supplement (SMGS) purchased from Cascade Biologics (Portland, Oreg., HCASMC Cat. No: C-017-5C; Medium 231 Cat. No: M-231-500; and SMGS Cat. No: S-007-25); 96-well CytoStar tissue culture treated scintillating microplates purchased from Amersham (Piscataway, N.J., Cat. No: RPNQ0160); Methyl ^14C-thymidine at 56 mCi/mmol (250 μCi/2.5 mL) purchased from NEN (Cat. No.: NEC568); DMSO from Sigma (St. Louis, Mo., Cat. No: D-5879); Sterile reagent reservoirs from Costar (VWR International, Inc., West Chester, Pa., Cat. No: 4870); Dulbecco's PBS from Gibco (Cat. No: 14190-136); Backing tape white plate cover for bottom of CytoStar plate from Packard (Cat. No: 6005199)
HCASMC were seeded at approx. 4000 cells/well in a volume of 100 μl of complete Medium 231 with SMGS. Cells were grown for 48 hrs until they reach 80% confluence. They were then quiesced in SMGS-free Medium 231 for 24 hrs. Cell media were replenished with SMGS-free Medium 231 containing PDGF-BB at 50 ng/mL in a total volume of 100 μl/well; and 1 μl of test compounds in serially diluted concentrations in 100% DMSO was added to each well. For the maximum growth control wells, only 1 μl of 100% DMSO was added; for minimum growth (blank) wells, 1 μl of 10 mM cycloheximide was added to each well. After 24 hours incubation, 20 μl of ^14C-thymidine mix was added to each well and the ^14C-thymidine mix was made according the following regimen:
(§1) Cells were incubated for an additional 24 hrs in media containing test compounds, PDGF-BB and ^14C-thymidine. Then, the reaction mixture was discarded and the plate was washed 3 times each with 200 μl PBS. Subsequently, each well on the plate was filled with 200 μl of PBS. The top of the plate was sealed with transparent plate sealer and white plate backing sealers were applied to the bottom of plates. The retained ^14C inside each well was measured using a Packard TopCount.
The amount of ^14C retained in a well correlates to the proliferation of cells inside the well. […] In order to test the potency of inhibition of the present compound, IC50 of an individual compound on the inhibition of PDGF-BB induced HCASMC proliferation was measured using the above procedure. As used herein, said IC50 refers to the concentration of the test compound at which the amount of PDGF-BB induced HCASMC proliferation is reduced by one-half as compared to the maximum growth control wells without the compound.

[2] = system: LoVo (colon); test: Anti-cell proliferation in tumor cells (14C-thymidine incorporation), LoVo; details: Homo sapiens, read-out: IC50 on cell proliferation, LoVo
Experimental: (§2) The effect of compounds of the invention on cell proliferation in various tumor cells was tested based on incorporation of ^14C-thymidine into DNA of cells.
(§3) Similar to those described above in 3a, except that different cells, cell growth medium, and growth supplements were used. Human tumor cell lines derived from various human tissue origins (LoVo from colon, H460 from lung, T47D from breast, PC3 from prostate, A375 from melanoma, AsPC1 from pancreas) were obtained from the American Type Culture Collection (ATCC) and cultured under specified conditions required for each cell type, as provided by ATCC. Complete medium was obtained from Cellgro: Iscove's medium with 10% Fetal Bovine Serium (FBS) (Mediatech, Inc., Herndon, Va. 20171, Cat. No. 10-016-CV).
(§4) Tumor cells were seeded at approx. 3000–8000 cells per well in a volume of 100 μl of complete medium. Cells were grown for 24 hours in complete medium, and 1 μl of test compound was serially diluted in 100% DMSO and added to each well. For maximum growth control wells, only 1 μl of 100% DMSO was added. After 24 hours incubation, 20 μl of ^14C-thymidine master mix was added to each well and the ^14C-thymidine master mix was pepared according to the following regimen:
as §1, with “hours at 37° C.” for “hrs”, “medium” for “media”, “compound” for “compounds, PDGF-BB”, “2” for “3”
(§5) In order to test the potency of inhibition of the present compound, IC50 of an individual compound on the inhibition of tumor cell line proliferation was measured using the above procedure. As used herein, said IC50 refers to the concentration of the test compound at which the amount of tumor cell proliferation is reduced by one-half as compared to the maximum growth control wells without the compound.

[3] = system: H460 (lung); test: Anti-cell proliferation in tumor cells (14C-thymidine incorporation), H460
Experimental: as §2, §3, §4
as §1, with “hours at 37° C.” for “hrs”, “medium” for “media”, “compound” for “compounds, PDGF-BB”, “2” for “3”
as §5

[4] = PDGF-BB induced HCASMC proliferation
[5] = Homo sapiens, NCI-H460; read-out: IC50 on cell proliferation, H460

Row | IC50 ([3]; Homo sapiens, NCI-H460, read-out: IC50 on cell proliferation, H460) [nM] | Compound | IC50 [1, 4] [nM] | IC50 [2] [nM] | IC50 [3, 5] [nM] | IC50 [1] [nM]
1 |  | COC(=O)c1cccc(Nc2[nH]nc3c2Cc2cc(OC)c(OC)cc2-3)c1 [Compound 11, 3-(6,7-Dimethoxy-2,4-dihydro-indeno[1,2-c]pyrazol-3-ylamino)-benzoic acid methyl ester] | 14 | 2 | 33 | 
2 |  | COc1cc2c(cc1OC)-c1n[nH]c(Nc3ccccc3F)c1C2 [Compound 12, (6,7-Dimethoxy-2,4-dihydro-indeno[1,2-c]pyrazol-3-yl)-(2-fluoro-phenyl)-amine] | 106 | 11 | 3 | 
3 | 10 | COc1cc2c(cc1OC)-c1n[nH]c(Nc3cccc(F)c3)c1C2 [Compound 14, (3-Fluoro-phenyl)-(6,7-dimethoxy-2,4-dihydro-indeno[1,2-c]pyrazol-3-yl)-amine] |  | 11 |  | 3
4 |  | Cc1ccc2c(c1)-c1n[nH]c(Nc3ccccc3)c1C2 [Compound 22, (7-Methyl-2,4-dihydro-indeno[1,2-c]pyrazol-3-yl)-phenyl-amine] | 278 | 13400 | 9270 | 
5 |  | COc1cc2c(cc1OC)-c1n[nH]c(Nc3cccnc3)c1C2 [Compound 30, (6,7-Dimethoxy-2,4-dihydro-indeno[1,2-c]pyrazol-3-yl)-pyridin-3-yl-amine] | 2 | 423 | 290 | 
6 |  | COc1ccc2c(c1)-c1n[nH]c(Nc3ccccc3)c1C2 [Compound 39, (7-Methoxy-2,4-dihydro-indeno[1,2-c]pyrazol-3-yl)-phenyl-amine] | 9 |  |  | 
7 |  | COc1cc2c(cc1OC)-c1n[nH]c(NCc3ccccc3)c1C2 [Compound 63, Benzyl-(6,7-dimethoxy-2,4-dihydro-indeno[1,2-c]pyrazol-3-yl)-amine] | 14 | 2400 | 3670 | 
8 |  | COc1cccc(Nc2[nH]nc3c2Cc2cc4c(cc2-3)OCO4)c1 [Compound 97, (2,9-Dihydro-5,7-dioxa-2,3-diaza-cyclopenta[a]-s-indacen-1-yl)-(3-methoxy-phenyl)-amine] | 19 | 225 | 424 | 
9 |  | CN1CCN(c2ccc3c(c2)Cc2c-3n[nH]c2Nc2cccc(Br)c2)CC1 [Compound 122, (3-Bromo-phenyl)-[6-(4-methyl-piperazin-1-yl)-2,4-dihydro-indeno[1,2-c]pyrazol-3-yl]-amine] | 125 | 3840 | 14300 | 
10 |  | COC(=O)c1cccc(Nc2[nH]nc3c2Cc2cc(OCCCN4CCCC4)c(OC)cc2-3)c1 [Compound 157, 3-[7-Methoxy-6-(3-pyrrolidin-1-yl-propoxy)-2,4-dihydro-indeno[1,2-c]pyrazol-3-ylamino]-benzoic acid methyl ester] | 8 | 2140 | 3590 | 
11 |  | COc1cc2c(cc1OC)-c1n[nH]c(NCc3cc(Cl)ccc3Cl)c1C2 [Compound 330, (2,5-Dichloro-benzyl)-(6,7-dimethoxy-2,4-dihydro-indeno[1,2-c]pyrazol-3-yl)-amine] |  | 3700 | 1200 | 
12 |  | COc1cc2c(cc1OC)-c1c(c(Nc3cccc(F)c3)nn1C(=O)CO)C2 [Compound 432, 1-[3-(3-Fluoro-phenylamino)-6,7-dimethoxy-4H-indeno[1,2-c]pyrazol-1-yl]-2-hydroxy-ethanone] |  | 35 |  | 

Source: patent US7196110B2, “N-substituted tricyclic 3-aminopyrazoles as inhibitors for the treatment of cell proliferative disorders” (Janssen Phamaceutica N.V., priority 2002, dated 2007)
